# According to patent publication US11578056B2, “Solid forms comprising (S)-2-(2,6-dioxopiperidin-3-yl)-4-((2-fluoro-4-((3-morpholinoazetidin-1-yl)methyl)benzyl)amino)isoindoline-1,3-dione and salts thereof, and compositions comprising and methods of using the same” (Celgene Corporation, priority 2019, dated 2023):
# How the values were obtained:
# Assay in all cases: Hematological cell line viability/apoptosis flow cytometry assay
# Format in all cases: cell-based
# HG3 cell line = settings: HG3 (CLL), 120 h
# Summary of the method: (§1)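 384-well format; serial dilutions 0.00015–10 μM, DMSO 0.1% v/v, 5 days. Annexin V/DRAQ7 flow readout. Viability normalized to DMSO → IC50, Emax, AUC; apoptosis (early + late) vs DMSO → EC50, Ymax, AUC.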
# OCI-LY10 cell line = settings: OCI-LY10 (DLBCL ABC); 120 h
# Summary of the method: as §1
# BL-41 cell line = settings: BL-41 (BL), 120 h
# Summary of the method: as §1
# KOPN-8 cell line = settings: KOPN-8 (ALL), 120 h
# Summary of the method: as §1
# CI cell line = settings: CI (CLL), 120 h
# Summary of the method: as §1
# OCI-LY1 cell line = settings: OCI-LY1 (DLBCL GCB); 120 h
# Summary of the method: as §1
# SU-DHL-8 cell line = settings: SU-DHL-8 (DLBCL GCB); 120 h
# Summary of the method: as §1
# OCI-LY3 cell line = settings: OCI-LY3 (DLBCL ABC), 120 h
# Summary of the method: as §1
# WILL-1 cell line = settings: WILL-1 (DLBCL); 120 h
# Summary of the method: as §1
# OCI-LY19 cell line = settings: OCI-LY19 (DLBCL GCB); 120 h
# Summary of the method: as §1
# WSU-DLCL2 cell line = settings: WSU-DLCL2 (DLBCL GCB); 120 h
# Summary of the method: as §1
# Mec2 cell line = settings: Mec2 (CLL), 120 h
# Summary of the method: as §1
# SK-MM-1 cell line = settings: SK-MM-1 (MM, PCL), 120 h
# Summary of the method: as §1
# [1] = Homo sapiens, read-out: % Viable Cells IC50
compound,measurement,setting,value
"O=C1CC[C@H](N2C(=O)c3cccc(NCc4ccc(CN5CC(N6CCOCC6)C5)cc4F)c3C2=O)C(=O)N1 [Compound 1, (S)-2-(2,6-dioxopiperidin-3-yl)-4-((2-fluoro-4-((3-morpholinoazetidin-1-yl)methyl)benzyl)amino)isoindoline-1,3-dione]",% Viable Cells AUC,HG3 cell line,676.2
same,% Viable Cells Emax,HG3 cell line,59.58%
same,Apoptosis AUC,HG3 cell line,131.5
same,Apoptosis Ymax,HG3 cell line,14.28%
same,EC50,HG3 cell line; HG-3,0.111 µM
same,IC50,"HG3 cell line; HG-3, read-out: % Viable Cells IC50",> 10 µM
same,% Viable Cells AUC,OCI-LY10 cell line,125.3
same,% Viable Cells Emax,OCI-LY10 cell line,10.16%
same,Apoptosis AUC,OCI-LY10 cell line,188.9
same,Apoptosis Ymax,OCI-LY10 cell line,22.31%
same,% Viable Cells AUC,BL-41 cell line,270.2
same,% Viable Cells Emax,BL-41 cell line,96.65%
same,Apoptosis AUC,BL-41 cell line,288.2
same,Apoptosis Ymax,BL-41 cell line,79.5%
same,EC50,BL-41 cell line; Homo sapiens,6.92 µM
same,IC50,BL-41 cell line; [1],6.07 µM
same,EC50,KOPN-8 cell line; Homo sapiens,726 µM
same,IC50,KOPN-8 cell line; [1],0.0418 µM
same,% Viable Cells AUC,KOPN-8 cell line,490.2
same,% Viable Cells Emax,KOPN-8 cell line,38.3%
same,Apoptosis AUC,KOPN-8 cell line,14.95
same,Apoptosis Ymax,KOPN-8 cell line,5.00%
same,% Viable Cells AUC,CI cell line,603.9
same,% Viable Cells Emax,CI cell line,53.58%
same,Apoptosis AUC,CI cell line,123.2
same,Apoptosis Ymax,CI cell line,13.01%
same,EC50,CI cell line,0.0229 µM
same,IC50,CI cell line; read-out: % Viable Cells IC50,9.7 µM
same,% Viable Cells AUC,OCI-LY1 cell line,22.77
same,% Viable Cells Emax,OCI-LY1 cell line,1.037%
same,Apoptosis AUC,OCI-LY1 cell line,852.3
same,Apoptosis Ymax,OCI-LY1 cell line,90.09%
same,% Viable Cells AUC,SU-DHL-8 cell line,119.5
same,% Viable Cells Emax,SU-DHL-8 cell line,2.081%
same,Apoptosis AUC,SU-DHL-8 cell line,363.2
same,Apoptosis Ymax,SU-DHL-8 cell line,85.44%
same,IC50,OCI-LY3 cell line; [1],> 10 µM
same,% Viable Cells AUC,OCI-LY3 cell line,965.1
same,% Viable Cells Emax,OCI-LY3 cell line,85.63%
same,Apoptosis AUC,OCI-LY3 cell line,24.63
same,Apoptosis Ymax,OCI-LY3 cell line,4.493%
same,% Viable Cells AUC,WILL-1 cell line,233.7
same,% Viable Cells Emax,WILL-1 cell line,4.216%
same,Apoptosis AUC,WILL-1 cell line,549.4
same,Apoptosis Ymax,WILL-1 cell line,79.51%
same,% Viable Cells AUC,OCI-LY19 cell line,72.49
same,% Viable Cells Emax,OCI-LY19 cell line,3.228%
same,Apoptosis AUC,OCI-LY19 cell line,706.2
same,Apoptosis Ymax,OCI-LY19 cell line,80.91%
same,% Viable Cells AUC,WSU-DLCL2 cell line,36.7
same,% Viable Cells Emax,WSU-DLCL2 cell line,1.387%
same,Apoptosis AUC,WSU-DLCL2 cell line,858.9
same,Apoptosis Ymax,WSU-DLCL2 cell line,92.1%
same,% Viable Cells AUC,Mec2 cell line,312.5
same,% Viable Cells Emax,Mec2 cell line,25.55%
same,Apoptosis AUC,Mec2 cell line,339.8
same,Apoptosis Ymax,Mec2 cell line,35.28%
same,EC50,Mec2 cell line,0.0133 µM
same,IC50,Mec2 cell line; read-out: % Viable Cells IC50,0.0755 µM
same,% Viable Cells AUC,SK-MM-1 cell line,202.2
same,% Viable Cells Emax,SK-MM-1 cell line,3%
same,Apoptosis AUC,SK-MM-1 cell line,90.99
same,Apoptosis Ymax,SK-MM-1 cell line,44.5%
same,EC50,SK-MM-1 cell line,86.4 µM
same,IC50,SK-MM-1 cell line; read-out: % Viable Cells IC50,0.0008 µM
